Values quoted from earlier work, collected in paper PMC3983201, “6-Methoxyflavanones as Bitter Taste Receptor Blockers for hTAS2R39” (PLoS ONE, 2014).
Like-named read-outs stand apart in the source and are kept apart here.

Assays:
hTAS2R31 = system: hTAS2R31; set-up: method as in PMID 22059530; settings: cited from earlier work
bitter taste = system: bitter taste; set-up: method as in PMID 16028996; settings: in-vivo sensory masking, unknown mechanism; cited from earlier work
hTAS2R39 = target: T1, hTAS2R39 (Homo sapiens, UniProt P59534); set-up: method as in PMID 24117141; settings: cited from earlier work
T1 construct: first 45 amino acids of rat somatostatin receptor type 3 (sst3 membrane-targeting tag) (N); expressed in transfected cells; host or cells: HEK293 T-Rex Flp-In cells stably expressing Gα16-gust44; receptor in pcDNA5/FRT, induced with doxycycline
T1 sequence (P59534 1-338): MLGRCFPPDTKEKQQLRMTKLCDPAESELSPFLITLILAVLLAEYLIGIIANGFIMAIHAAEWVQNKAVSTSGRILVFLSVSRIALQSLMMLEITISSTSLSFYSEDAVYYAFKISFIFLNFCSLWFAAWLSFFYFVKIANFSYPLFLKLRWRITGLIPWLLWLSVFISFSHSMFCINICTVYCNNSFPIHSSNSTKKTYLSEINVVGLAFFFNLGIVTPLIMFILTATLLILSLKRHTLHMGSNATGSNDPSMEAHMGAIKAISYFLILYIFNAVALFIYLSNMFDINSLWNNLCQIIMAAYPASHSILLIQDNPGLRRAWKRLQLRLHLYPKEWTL

SMILES	antagonism of hTAS2R31 (hTAS2R31)	antagonism of hTAS2R31 (hTAS2R31; listed as sakuranetin)	reduction of the bitter taste of different chemical classes of bitter molecules (bitter taste)	activation of hTAS2R39 in a previous study (hTAS2R39)
COc1cc(O)c2c(c1)O[C@H](c1ccc(O)cc1)CC2=O [Compound 14, Sakuranetin]	c reported as antagonist of hTAS2R31 [10].	antagonists for hTAS2R31	–	–
O=C1C[C@@H](c2ccc(O)c(O)c2)Oc2cc(O)cc(O)c21 [Compound 4, Eriodictyol]	–	–	up to 40%	a activated hTAS2R39 in a previous study [16], but was selected for testing as antagonist due to ability to reduce bitter taste perception in sensory tests [9].
COc1cc2c(c(O)c1OC)C(=O)C[C@@H](c1ccc(O)cc1)O2 [6-methoxysakuranetin, reference compound]	antagonists for hTAS2R31	–	–	–
COc1cc([C@@H]2CC(=O)c3c(O)cc(O)cc3O2)ccc1O [Compound 7, Homoeriodictyol]	–	–	up to 40%	a activated hTAS2R39 in a previous study [16], but was selected for testing as antagonist due to ability to reduce bitter taste perception in sensory tests [9].
